The test system of test [1] is Parkin. Description: Parkin recruitment to mitochondria and mitochondrial morphology, fluorescence microscopy. In kind it is cell-based, human. Particulars: HEK293 T-REx PINK1 cells, 3 h; 5 μM compound 5, CCCP or Antimycin A, vs DMSO. As for the experimental part:
(§1) Inducible stable Flp-In HEK293 T-REx cells expressing PINK1 were described previously.[33] HEK293 T-REx PINK1 and HEK293T cells were grown in DMEM (Gibco) supplemented with 10% (v/v) fetal bovine serum (ThermoFisher), 1% (v/v) GlutaMAX (Gibco), 1% (v/v) sodium pyruvate (Gibco), 125 μg/mL hygromycin (Invitrogen), and 10 μg/mL blasticidin (Gibco) or DMEM supplemented with 10% (v/v) fetal bovine serum, respectively, at 37 °C in 5% (v/v) CO2. For microscopy, cells were seeded on poly-L-lysine (Sigma)-coated slides. Transient plasmid transfections were performed using 25 kDa linear polyethylenimine (Polysciences). Plasmid (100 ng) encoding HA-Parkin-IRES-GFP, mito-mCherry or Parkin-mEGFP, or 500 ng plasmid encoding PGAM5-FLAG were used per 6-well. Total transfected DNA was 2 μg/well. For siRNA transfection, 2 × 10^5 cells were seeded per 6-well and on the next day transfected with 20 nM siRNA-oligonucleotide using lipofectamine RNAiMAX (ThermoFisher). Cells were analyzed 27 h post-transfection or five days post-siRNA-transfection. HEK293 T-REx PINK1 cells were induced with 0.3 μg/mL doxycycline for 24 h before further processing. Hoechst staining (1 μg/mL) was done immediately before adding treatment to the cells. Treatments were administered for the indicated times before processing; CCCP (Sigma) was always used as 10 μM for 3 h and Antimycin A (Sigma) as 30 μM for 3 h.
For fixation, cells were incubated for 15 min with 4% formaldehyde (16% formaldehyde diluted in PBS, Thermo Scientific) and washed in PBS. The cover glasses were mounted with Fluoromount-G (Southern Biotech) on microscope slides. […] Parkin recruitment events to the mitochondria were counted by hand throughout each z-stack and cell. […] JC-1 images were handled as summed intensity z-stack projections, as well as subjected to flatfield correction and subtraction of background before measuring the fluorescence levels normalized to the number of cell nuclei. The fluorescence intensity ratio between the red and green signal was calculated and compared to DMSO as a ratio of 1. Data were evaluated using Excel and GraphPad Prism 6.

The test system of test [2] is Parkin. The test can be described thus: Parkin recruitment to mitochondria, subcellular fractionation and immunoblot. The class given is cell-based, human. Particulars: HEK293 T-REx PINK1 cells, HA-Parkin-IRES-GFP; 5 μM compound 5, CCCP 10 μM or Antimycin A 30 μM. As to the method: as §1
Unless mentioned otherwise, all steps were performed at 4 °C. For subcellular fractionation to separate cellular content into cytosolic and mitochondrial fractions, cells were washed with PBS, harvested in PBS-EDTA (1 mM EDTA, 0.2 g/L D-glucose), and centrifuged at 500 × g for 5 min. […]
For immunoblot analysis in other cases, cells were either processed as described above or washed with PBS and directly lysed with Tris-glycine SDS-PAGE sample buffer and heated for 15 min at 65 °C. […] For quantification, ImageJ was used (http://rsb.info.nih.gov/ij/). […]
Background: Immunoblotting shows a protein as a band on a membrane.

Test [3] addresses T1, PARL (Homo sapiens, UniProt Q9H300).
T1 sequence (Q9H300 53-379): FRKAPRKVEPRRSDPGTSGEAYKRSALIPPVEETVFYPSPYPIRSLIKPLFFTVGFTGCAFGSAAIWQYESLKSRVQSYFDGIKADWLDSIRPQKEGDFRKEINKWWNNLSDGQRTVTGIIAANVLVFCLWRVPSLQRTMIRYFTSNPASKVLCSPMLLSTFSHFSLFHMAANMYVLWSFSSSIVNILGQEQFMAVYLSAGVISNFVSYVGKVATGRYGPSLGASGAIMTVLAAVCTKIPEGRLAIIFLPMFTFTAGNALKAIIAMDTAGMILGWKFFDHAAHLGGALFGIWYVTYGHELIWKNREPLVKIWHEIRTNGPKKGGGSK
The test can be described thus: In vitro assay for PARL activity, cleavage of AMC substrates by liposome-embedded PARL. In kind it is biochemical. On the set-up: hexahistidine tag (C); made in house; host or cells: continuous-exchange cell-free expression in bacterial lysates with T7 polymerase (CUBE biotech), into liposomes. Particulars: mature PARL in liposomes, S277A catalytic mutant as control. As for the experimental part:
Liposome preparation and cell-free protein expression of PARL were carried out essentially as described previously.[27] Liposomes resembling the lipid composition of the IMM were prepared by mixing 40% DOPC (1,2-dioleoyl-sn-glycero-3-phosphocholine), 33.8% DOPE (1,2-dioleoyl-sn-glycero-3-phosphoethanolamine), 18% CL(18:1)4 (1′,3′-bis[1,2-dioleyl-sn-glycero-3-phospho]-glycerol), 3% DOPS (1,2-dioleoyl-sn-glycero-3-phospho-L-serine), 5% soy-PI (L-α-phosphatidylinositol), and 0.2% rhodamine-PE (1,2-dioleoyl-sn-glycero-3-phosphoethanolamine-N-(lissamine rhodamine B sulfonyl)) in chloroform, followed by the evaporation of chloroform by a stream of nitrogen gas and drying in a vacuum chamber (Binder) for 1 h. […] Concentration of PARL was determined by absorption at 280 nm.
The PARL activity assay in vitro was carried out in 5 mM Tris, 5 mM Mg(OAc)2, 25 μM Zn(OAc)2, 0.1 μg/μL BSA, 30% DMSO, pH 8.0 using PARL in liposomes at 0.05 mg/mL. Compound 3 and 4 were used at 5 μM final concentration based on quantitative amino acid analysis. […] The cleavage reaction was carried out at 37 °C in 96-well black HTS plates (Greiner Bio-One) in a plate reader (Tecan Infinite M1000) with excitation and emission wavelengths set to 355 and 450 nm, respectively. Data were evaluated using Excel (Microsoft) and GraphPad Prism 9 (GraphPad Software, Inc.).

The target of test [4] is T1, PARL. Description: PARL inhibition assay in cells: cleavage of overexpressed PGAM5-Myc by tetracycline-induced PARL-FLAG, immunoblot. The class given is cell-based. On the set-up: expressed in transfected cells; host or cells: Flp-In HEK293 T-REx PARL knockout cells. Particulars: Flp-In HEK293 T-REx PARL KO cells with inducible PARL-FLAG, PGAM5-Myc, mean ± SEM of four or three experiments; read-out: Apparent IC50, PGAM5 cleavage by overexpressed PARL. As for the experimental part: PARL inhibition assays in cells were carried out in Flp-In HEK293 T-REx PARL knockout cells stably transfected with tetracycline inducible PARL-FLAG grown in DMEM (Gibco) supplemented with 10% (v/v) tetracycline-free fetal bovine serum (Clontech). For the inhibition assay, 0.7 × 10^6 cells were seeded per well of a 6-well plate, and the next day transfected with 5 μg of human PGAM5-Myc in pcDNA and 15 μg of branched polyethylenimine (Polysciences) per well. Four hours after transfection, the PARL expression was induced by adding tetracycline to 1 μg/mL. Eight hours after transfection, the inhibitors were added to each well in different concentrations in serum-free DMEM with 1% DMSO.
For immunoblot analysis of the effects of PARL inhibitors on PGAM5 cleavage, after overnight incubation with inhibitors, cells from each well were harvested in 1× SDS sample buffer containing 20 mM MgCl2 and Pierce universal nuclease (250 U/mL, Thermo Scientific) and heated to 65 °C for 10 min. Loading volumes for SDS-PAGE were adjusted by measuring total protein concentration in the lysates with Pierce 660 nm Protein Assay Reagent and Ionic Detergent Compatibility Reagent for Pierce 660 nm Protein Assay Reagent (Thermo Scientific). Samples were resolved by SDS-PAGE using a 12% polyacrylamide gel (Biorad) and electrotransferred onto an Immobilon PVDF membrane (Merck Millipore). Blots were blocked using casein blocker (Thermo Scientific) and hPGAM5 was labeled by rabbit anti-Myc antibody (Cell Signaling Technology, cat. #2278, dilution 1:1000) at 4 °C overnight. Blots were washed three times with TBS-T and incubated with IRDye 800 CW donkey anti-rabbit antibody (Invitrogen, cat. #SA5-10044, dilution 1:10,000) at room temperature for 2 h. Membranes were then again washed three times with TBS-T and one time with TBS. Fluorescence emission at […] of dried membranes was scanned on Odyssey CLx (LI-COR). Cleavage efficiency and inhibition were analyzed as described[23] using Image Studio Lite (LI-COR), Excel (Microsoft) and GraphPad Prism 9 (GraphPad Software, Inc.).

For test [5], the target named is T1, PARL. Description: PARL inhibition in vitro, PARL in liposomes with substrate compound 4. On the set-up: hexahistidine tag (C); made in house; host or cells: continuous-exchange cell-free expression in bacterial lysates with T7 polymerase (CUBE biotech), into liposomes. The class given is biochemical. Particulars: recombinant mature PARL in liposomes, 100 μM substrate compound 4, mean ± SEM of three or four measurements. As to the method:
Liposome preparation and cell-free protein expression of PARL were carried out essentially as described previously.[27] Liposomes resembling the lipid composition of the IMM were prepared by mixing 40% DOPC (1,2-dioleoyl-sn-glycero-3-phosphocholine), 33.8% DOPE (1,2-dioleoyl-sn-glycero-3-phosphoethanolamine), 18% CL(18:1)4 (1′,3′-bis[1,2-dioleyl-sn-glycero-3-phospho]-glycerol), 3% DOPS (1,2-dioleoyl-sn-glycero-3-phospho-L-serine), 5% soy-PI (L-α-phosphatidylinositol), and 0.2% rhodamine-PE (1,2-dioleoyl-sn-glycero-3-phosphoethanolamine-N-(lissamine rhodamine B sulfonyl)) in chloroform, followed by the evaporation of chloroform by a stream of nitrogen gas and drying in a vacuum chamber (Binder) for 1 h. Dried lipids were dissolved in buffer (5 mM Tris/HCl, pH 8.5, 10 mM KOAc) and extruded 21 times through a mini extruder (Avanti Polar Lipids) using a polycarbonate membrane with a pore size of […]. […] The PARL-containing liposomes were purified by a step-wise sucrose step-gradient centrifugation (0, 15, 30, and 40% sucrose in 5 mM HEPES pH 7.5 with 25 mM NaCl) for 2 h at 200,000 × g. Soluble proteoliposomes were harvested at the 0%/15% sucrose interface after the centrifugation. Concentration of PARL was determined by absorption at 280 nm.
PARL inhibition in vitro was measured in 5 mM Tris, 5 mM Mg(OAc)2, 25 μM Zn(OAc)2, 0.1 μg/μL BSA, 10% DMSO, pH 8.0 using PARL in liposomes at 0.07 mg/mL and compound 4 at 100 μM final concentration. Inhibitor concentrations were determined by quantitative amino acid analysis. Inhibitors in DMSO were dissolved at the respective concentrations into the reaction buffer by vigorous mixing at 1000 rpm, 37 °C for 40 min and then pre-incubated with PARL in liposomes at 37° for 1 h. The cleavage reaction was started by adding compound 4 and carried out at 37 °C in 96-well black HTS plates (Greiner Bio-One). Fluorescence was read in a plate reader (Tecan Infinite M1000) with excitation and emission wavelengths set to 355 and 450 nm, respectively. Data were evaluated using Excel (Microsoft) and GraphPad Prism 9 (GraphPad Software, Inc.). The data shown are representative of at least three independent experiments.

*1 amine or outer side, *2 acyl side, *3 side chain or, on linkers, in order; H or OH if unused. Where a SMILES comes first, the peptide text is derived from it. [ ]: non-standard residue; d: D form. The star is where a group is joined. X2 = O=C(C(=O)[*:2])[C@H](Cc1ccccc1)N[*:1]; NH(4-phenylbutyl) = c1ccc(CCCCN*)cc1; X1 = C[C@H](N[*:1])C(=O)C(=O)[*:2]; AMC = Cc1cc(=O)oc2cc(N*)ccc12

On to `CCCCCC[C@H]1C(=O)O[C@H](C)[C@H](NC(=O)c2cccc(NC=O)c2O)C(=O)O[C@@H](C)[C@@H]1OC(=O)CC(C)C` [Antimycin A], for which the “Recruitment of Parkin-mEGFP to mitochondria (microscopy)” value in the test on Parkin [1] is “not significantly different from Parkin recruitment under DMSO conditions”. In addition, the “Parkin recruitment to the mitochondrial fraction” value in the test on Parkin [2] is “activates the PINK1/Parkin pathway”. As to `CC(=O)N[C@@H](C)C(=O)N[C@H](C(=O)N[C@@H](Cc1ccccc1)C(=O)N[C@@H](CC(C)C)C(=O)N[C@@H](C)C(=O)Nc1ccc2c(C)cc(=O)oc2c1)C(C)C` [compound 3, AcAVFLA-4mc] (Ac-AVFLA-{AMC}), on PARL [3], the “Cleavage of substrate by liposome-embedded PARL” value is recorded as “are cleaved by liposome-embedded PARL but not its catalytic mutant”.

The term IC50 denotes the midpoint of a concentration-inhibition curve. Take `CC(=O)N[C@@H](CCCNC(=N)N)C(=O)N[C@@H](CCCNC(=N)N)C(=O)N[C@@H](C)C(=O)N[C@H](C(=O)N[C@@H](Cc1ccccc1)C(=O)N[C@@H](CC(C)C)C(=O)N[C@@H](C)C(=O)C(=O)NCCCCc1ccccc1)C(C)C` [compound 6] (Ac-RRAVFL[X1]-{NH(4-phenylbutyl)}): the IC50 at PARL [4] came out at 3200 nM; at PARL [5] it was 80 nM. Take `CC[C@H](C)[C@H](NC(=O)[C@H](CCCCN)NC(=O)[C@H](Cc1ccccc1)NC(=O)[C@H](CCCNC(=N)N)NC(=O)[C@H](CCCNC(=N)N)NC(C)=O)C(=O)N[C@@H](Cc1ccccc1)C(=O)C(=O)NCCCCc1ccccc1` [compound 7] (Ac-RRFKI[X2]-{NH(4-phenylbutyl)}): at PARL [5], the IC50 came to 1040 nM.

For the origin of these results see article PMC9841525, “Chemical Blockage of the Mitochondrial Rhomboid Protease PARL by Novel Ketoamide Inhibitors Reveals Its Role in PINK1/Parkin-Dependent Mitophagy” (Journal of Medicinal Chemistry, 2022).
